From US9119805B2, “Therapy and prevention of problem drinking” (THE UNIVERSITY OF SYDNEY, priority 2009, dated 2015)
Entries after “also recorded” stand apart in the source; their conditions may differ.

Legend:
Assay type in all cases: in vivo, rat
[1] = tested on: P rats; experiment: Lickometer alcohol preference in alcohol-naïve P rats pre-treated with 10 daily oxytocin injections (Example 2)
Procedure: P rats (8 female and 6 male P rats) of adult age (i.e., 150 days) were used in this study. Animals were maintained as described in example 1, however they received no alcohol prior to testing.
One-half of the rats (n=4 female and n=3 male) were given 10 injections of 1 mg/kg oxytocin (a single I/P injection per day for a total of 10 days). The other half of the rats received equivalent injections of placebo/vehicle lacking oxytocin. Two weeks later, the alcohol preferences of both sets of alcohol-naïve animals were tested. The same alcohol and alcohol-free solutions were employed as in example 1, and testing conditions were in the same lickometer apparatus. Testing in the lickometer (1×70 min session per day) continued for a total of 10 days during which time intake of sucrose and Vodka Cruiser were measured.

[2] = tested on: Male Wistar rats; experiment: Home-cage free access to 4.5% ethanol beer after oxytocin prophylaxis (Example 3, FIGS. 5-7)
Procedure: Male Wistar rats (n=48) were obtained from the Animal Resource Centre (ARC), Perth, Western Australia, Australia. The animals were of early adolescent age (i.e., 21 days-old) on arrival and were young adults (i.e., 33 days-old) when oxytocin therapy commenced. The animals were housed and maintained as described in the preceding examples, except that animals were moved to individual housing during chronic exposure to alcohol.
One-half of the rats (n=24) were administered 10 injections of 1 mg/kg oxytocin (1×I/P injection per day for a total of 10 days). The other half of the rats (n=24) received equivalent injections of placebo/vehicle lacking oxytocin.
A subset of the treated rats (n=8 per condition) were exposed to alcohol in the lickometer apparatus over a 10 day period. On the first day of testing, animals were exposed to a 70 min session in the lickometer during which a low-alcohol near-beer was provided at both lick tubes (Birell's Premium, containing 0.5% alcohol). On subsequent days, animals were exposed to further 70 min test sessions during which near-beer supplemented with increasing amounts of absolute ethanol were provided at both lick tubes i.e., to produce a beer comprising 1.5%, 2.5%, 3.5% and finally 4.5% ethanol. The concentration of ethanol was then maintained at 4.5% for all subsequent testing.
After 9 days of lickometer testing, the rats were given free access to 4.5% ethanol containing beer for a 24-day period in their home cages. Standard rat chow and tap water were also available in the home cages. Alcohol intakes and body weights were measured daily.

[3] = tested on: rats having established patterns of pathologically-high alcohol consumption; experiment: Beer and water consumption in the 2.5 hr after a single oxytocin injection in alcohol-dependent animals (Example 4, FIG. 8); conditions: 2.5 hr following 1 mg/kg IP
Procedure: FIG. 8 provides graphical representations showing total consumption (ml) of full strength beer (panel A) and water (panel B) in rats having established patterns of pathologically-high alcohol consumption over several months, in a 2.5 hr period following intraperitoneal (IP) injection with 1 mg/kg oxytocin (OXY, n=8) or saline vehicle (VEH, n=8). […] Alcohol consumption in animals treated with oxytocin was reduced in the short-term by about 25% to about 40% or about 50% or about 60%. In contrast, consumption of water was unchanged in animals receiving oxytocin or saline vehicle placebo.
Alcohol-dependent animals were provided a single injection i/p of oxytocin (1 mg/kg body weight) and their alcohol consumption levels in the 2.5 hr period following therapy were determined.

[4] = FIG. 6 panel A, start of exposure

CC[C@H](C)[C@@H]1NC(=O)[C@H](Cc2ccc(O)cc2)NC(=O)[C@@H](N)CSSC[C@@H](C(=O)N2CCC[C@H]2C(=O)N[C@@H](CC(C)C)C(=O)NCC(N)=O)NC(=O)[C@H](CC(N)=O)NC(=O)[C@H](CCC(N)=O)NC1=O [oxytocin]
alcohol intake and preference for alcohol ([1]; alcohol-naïve P rats, both sexes, repeated doses): reduced alcohol intake and preference for alcohol; also recorded: reduced significantly | preference for Vodka Cruiser versus 3% sucrose solution ([1]; male alcohol-naïve P rats, 10 x 1 mg/kg/day, final 4 days of testing): significantly reduced preference for Cruiser over sucrose | intake of sucrose ([1]; male oxytocin-treated rats relative to both female groups): higher | intake of Cruiser (alcohol) ([1]; male oxytocin-treated rats versus the other groups): less intake of alcohol; also recorded: lower | reduced acquisition of alcohol preference, comparison between the sexes ([1]; males compared to females): greater in males compared to females | average daily intake of full strength beer ([2]; FIG. 5, final oxytocin injection about 30 days before exposure to alcohol, versus placebo): significantly reduced alcohol consumption; also recorded: consistently less alcohol intake | consumption of water ([2]; FIG. 6, same period): did not significantly modify consumption of water; also recorded: unchanged | escalation of alcohol consumption / alcohol intake ([2]; FIG. 6, 10 daily IP injections ending about 21 days before 24 days beer exposure, versus saline vehicle): significantly reduced an escalation of alcohol consumption; also recorded: consistently less alcohol intake | ethanol consumption after marginal increase ([2]; FIG. 6 panel A, over 24 days): 10-10.8 g/kg of pure ethanol per day | initial beer consumption [2, 4]: about 110 ml of beer per day | initial ethanol consumption [2, 4]: about 9 g/kg of pure ethanol per day | reduction of initial alcohol consumption ([2]; FIG. 6 panel A, versus animals without oxytocin): about 10% | total consumption of full strength beer ([2]; FIG. 7 panel A, final week of the experiment, versus saline vehicle): significantly reduced later consumption of alcohol | total water consumption ([2]; FIG. 7 panel B, final week): no significant difference in total water consumption | alcohol consumed with free access to full strength beer in home cages ([2]; FIGS. 5-7, versus placebo): consumed consistently less alcohol | body weight and food intake ([2]; oxytocin pre-treated rats versus controls, FIG. 5 experiment): same body weight and food intake as controls | general health ([2]; oxytocin pre-treated rats, FIG. 5 experiment): appeared healthy | consumption of water [3]: unchanged; also recorded: not affected | beer (alcohol) consumption ([3]; versus saline vehicle): significantly reduced beer consumption
